Assay results reported in patent publication US5606037A, “Processes antineoplastic heteronaphthoquinones” (BioChem Pharma Inc., priority 1995, dated 1997).
Counter-ions that a name gives are not always drawn.

What was measured:
Type in all cases: cell-based, Human
[1] = system: SKOV3 (Ovarian adenocarcinoma); experiment: In vitro cytotoxicity, microculture tetrazolium (MTT) assay, SKOV3; conditions: SKOV3 ovarian adenocarcinoma, 48 h with compound, further 48 h, MTT, Table 1
In short: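 Cells plated overnight, then exposed to compound (1:3 dilutions, 100 μM to 1.7 nM, quadruplicate) 48 h at 37 °C, followed by 48 h in fresh medium. MTT 4 h, formazan extracted in DMSO/Sorensen's buffer pH 10.5, A570; four-parameter logistic fit on 0–100% survival scale.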

[2] = system: HT 29 (Colon adenocarcinoma); experiment: In vitro cytotoxicity, microculture tetrazolium (MTT) assay, HT29; conditions: further 48 h, Table 1
In short: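 HT29 cells exposed to compound (1:3 series, 100 μM to 1.7 nM, quadruplicate) for 48 h at 37 °C, then 48 h in fresh medium. Viability by MTT reduction, formazan absorbance at 570 nm; four-parameter logistic fit on 0-100% survival scale.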

[3] = system: T47D (Ductal carcinoma of breast); experiment: In vitro cytotoxicity, microculture tetrazolium (MTT) assay, T47D; conditions: 48 h with compound, further 48 h, Table 1
In short: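 Adherent cells (1,500-4,000/well) were exposed to compound in 1:3 dilutions from 100 μM to 1.7 nM, in quadruplicate, for 48 h at 37° C, followed by 48 h in fresh medium. MTT formazan was read at 570 nm, and data were fitted by four-parameter logistic on a 0-100% survival scale.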

[4] = system: Lox (Melanoma); experiment: In vitro cytotoxicity, microculture tetrazolium (MTT) assay, LOX; conditions: 48 h with compound, further 48 h, Table 1
In short: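 LOX melanoma cells, 1,500–4,000 per well, exposed to compound (1:3 dilutions, 100 μM to 1.7 nM) for 48 h at 37° C., then 48 h in fresh medium. MTT reduction read at 570 nm; four-parameter logistic fit normalized to 0–100% survival.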

[5] = system: SKVLB (Ovarian; multidrug resistant); experiment: In vitro cytotoxicity, microculture tetrazolium (MTT) assay, SKVLB; conditions: Homo sapiens; SKVLB multidrug resistant ovarian; 48 h with compound, further 48 h, MTT; Table 1
In short: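 Multidrug-resistant SKVLB ovarian cells, 1,500–4,000 per well, exposed to compound (1:3 dilutions, 100 μM to 1.7 nM, quadruplicate) for 48 h at 37 °C, then 48 h in fresh medium. Viability by MTT reduction, formazan read at 570 nm; four-parameter logistic fit on a 0–100% survival scale.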

[6] = system: VLB/OV3; experiment: Resistance ratio of SKVLB over SKOV3 cytotoxicity (VLB/OV3); conditions: ratio SKVLB to SKOV3; Table 1; 2880 min
Protocol: The microculture tetrazolium assay was used to test in vitro cytotoxicity. This assay is described in Plumb, J. A. et al., 1989 Cancer Research 49, 4435-4440, which is herein incorporated by reference. The cytotoxicity of compounds towards tumor cells is measured in vitro using the assay. This assay method is based upon the ability of live, but not dead cells to reduce the yellow water soluble dye 3-(4,5-dimethylthiazol-2-yl)-2,5-diphenyltetrazolium bromide (MTT) to its water insoluble purple formazan product.
SKOV3 (Ovarian adenocarcinoma)--provided by Dr. V. Ling, Ontario Cancer Institute.
SKVLB (Ovarian; multidrug resistant)--Dr. V. Ling, Ontario Cancer Institute.
For each assay, doxorubicin is included as an inter-assay standard. This allows us to monitor the behaviour of the assay in general, and in particular, to check that the SKVLB line has maintained its resistant phenotype.
Cells are plated out in 100 μl of culture medium in the microtiter plates at a density of around 1,500-4,000 cells per well. The plates are incubated overnight to allow the cells to become adherent after which the test compound is added (100 μl of appropriate dilution per well). The cells are incubated with test compound at 37° C. for 48 h after which the compound is replaced with fresh medium. After a further 48 h incubation at 37° C., 50 μl of MTT solution (2 mg/ml) is added to each well. The plates are incubated in the dark for 4 h at 37° C. after which the medium is removed. The MTT formazan product is extracted from the cells by the addition of 200 μl DMSO followed by 50 μl of Sorensen's buffer. The plates are shaken briefly and the absorbance at 570 nm is read using a Molecular Devices UV max plate reader. Curves are fit to the MTT assay data using a four parameter logistic equation, and the data are normalized to fit a 0% to 100% survival scale.

[7] = Homo sapiens, HT-29, 48 h with compound

Row | Compound | IC50 ([1]; Homo sapiens, SK-OV-3) [nM] | IC50 [2, 7] [nM] | IC50 ([3]; Homo sapiens) [nM] | IC50 ([4]; Homo sapiens) [nM] | IC50 [5] [nM] | VLB/OV3 [6] | IC50 [1] [nM] | IC50 ([2]; 48 h with compound) [nM] | IC50 [3] [nM] | IC50 [4] [nM]
1 | CC(=O)[C@@H]1CC2=C(C(=O)c3ccccc3C2=O)[C@@H](O[C@H]2C[C@H](NC(=O)C(F)(F)F)[C@H](O)[C@H](C)O2)O1 [BCH1184, (1'S,1R,3S)-Methyl (5,10-dioxo-1-(2',3',6'-trideoxy-3'-trifluoroacetamido-4'-hydroxy-L-lyxohexopyranose)-3,4,5,10-tetrahydronaphtho [2,3-C]pyran-3-yl) ketone] | 5 to 63.1 | 2.3 to 16.1 | 284 to 530 | 18.6 to 228 | 53.6 to 300 | 4.75-22.34 | – | – | – | –
2 | CO[C@H]1C[C@H](O[C@@H]2O[C@@H](C(C)=O)CC3=C2C(=O)c2ccccc2C3=O)O[C@@H](C)[C@H]1OS(C)(=O)=O [BCH2072, (1'-S, 1'S, 3-R)-methyl-(1-[2',3',4',6' tetradeoxy-3'-methoxy-4'-O-methanesulfonyl-L-lyxohexopyranose)-5,10-dioxo-3,4,5,10 tetrahydronaphtho-[2,3-c]pyran-3-yl) ketone] | 64.1 to 113 | 53.9 to 101 | 23.6 to 350 | 102 | 315 to 991 | 2.79-15.46 | – | – | – | –
3 | CC(=O)C1CC2=C(C(=O)c3ccccc3C2=O)C(OCC2CCCCN2)O1 (racemic) [BCH2069, Methyl-(1-O-[2'-piperidinemethanol]-5,10-dioxo-3,4,5,10-tetrahydronaphthaleno-[2,3-c]pyran-3-yl) ketone, racemic, hydrochloride] | 49.4 | 350 | 1110 | 90.3 | 83 to 483 | 2-9.78 | – | – | – | –
4 | CC(=O)C1CC2=C(C(=O)c3ccccc3C2=O)C(OC2CC(NC(=O)C(F)(F)F)C(O)C(C)O2)O1 [BCH2144, (1R, 3S)-1-(2',3',6'-trideoxy-3'-trifluoroacetamido-4'-hydroxy-1,5-dihydro-L-lyxohexopyranose-2-yl)-5,10-dioxo-3,4,5,10-tetrahydro-1H-naphtho-[2,3-c] pyran] | – | – | – | – | – | 0.75 | – | – | – | –
5 | COP(=O)(CC(=O)[C@H]1CC2=C(C(=O)c3ccccc3C2=O)[C@H](O[C@H]2C[C@H](NC(=O)C(F)(F)F)[C@H](O)[C@H](C)O2)O1)OC [BCH1690, (1'S,1S,3R)-1-(2',3',6'-trideoxy-3'-trifluoroacetamido-L-lyxohexopyranose)-3-dimethylphosphonoacetyl-5,10-dioxo-3,4,5-10-tetrahydro-1H-naphtho-[2,3-c]-pyran] | – | – | – | – | – | 7.70 | – | – | – | –
6 | CC(=NO)[C@@H]1CC2=C(C(=O)c3ccccc3C2=O)[C@@H](O[C@H]2C[C@H](NC(=O)C(F)(F)F)[C@H](O)[C@H](C)O2)O1 [BCH2115, (1'S, 1R, 3S)-3 (oximoethyl)-5,10-dioxo-1 (2,3,6-trideoxy-3-trifluoroacetamido-L-lyxohexopyranose)-3,4,5,10-tetrahydro-1H-naphtho-(2,3-c)-pyran] | – | – | – | – | – | > 50 | 2300 | 5600 | 5300 | 4000
7 | CC(=O)C1CC2=C(C(=O)c3ccccc3C2=O)C(OC[C@@H]2CCCN2C(=O)OC(C)(C)C)O1 (mixture of isomers) [BCH2067, (1S, 2'S, 3R) and (1R, 2'S, 3S)-methyl-(1-[O-N-BOC-prolinol]-5,10-dioxo-3,4,5,10-tetrahydro-1-H-naphtho[2,3-C]pyran-3-yl) ketone] | 1200 | 323 | 540 | 1100 | – | 2 | – | – | – | –
8 | C=CC[C@@H]1CC2=C(C(=O)c3ccccc3C2=O)[C@@H](O[C@H]2C[C@H](NC(=O)C(F)(F)F)[C@H](O)[C@H](C)O2)O1 (mixture of isomers) [BCH2031, (1'S,1S,3S) and (1'S,1-R,3-R)-3-([2',3',6'-trideoxy-3'-trifluoroacetamido-4'-hydroxy-L-lyhohexopyranose]-5,10-dioxo-3,4,5,10-tetrahydronaphtho-[2,3-c]-pyran-3-yl)-propene] | – | – | – | – | – | 3 | 6000 | 8500 | 16000 | 2800
